In patent US20200360249A1, “AN ANTIMICROBIAL COMPOSITION” (Conopco, Inc., d/b/a UNILEVER, priority 2017, published 2020):

What was measured:
Assay type in all cases: cell-based
M. furfur = experiment: Antifungal activity, log reduction by plate count; details: M. furfur ATCC 14521; contact time 24 hr; 10 mg sample in 1000 μL inoculum, 10^5 cells/ml; 32° C.
Procedure: The samples as given in Table-1 were subjected to their anti fungal efficacy on M. furfur as described hereinafter.
Plate was at 30° C. for 72 hrs. Approximately 72 hrs prior to testing, the plate culture was inoculated onto the surface of another sterile Modified Dixon agar plate and incubated at 30° C. for approximately 72 hrs. From second subculture, the optical density of culture is adjusted at 620 nm to give cell strength of 10^7 cfu/ml. The culture was further diluted by 100 times to achieve 10^5 cfu/ml in Pityrosporum broth.
10 mg of each sample was thoroughly mixed by vortex and weighed into a sterile 1.5 ml Eppendorf tube. 1000 μL of M. furfur inocula were added to the above tubes and a blank sterile 1.5 ml Eppendorf tube (no particles as control), respectively so that the load in each tube is 10^5 cells/ml.
All the samples were shaken at 120 RPM in a shaker incubator at 32° C. After 24 hours incubation, 10 μL of the samples were withdrawn from the respective 1.5 ml Eppendorf tubes and diluted with 990 μL of Pityrosporum broth. This represents a 10^2 dilution. Serial dilution was performed from the above 24 hours inocula and plated 100 μL of dilution onto modified Dixon plate. Plate dilution 10^2, 10^3, 10^4 and […]. All the plates were kept for incubation at 32° C. for 24-72 hrs. Plate count for all the plates were done.

Staphylococcus aureus = experiment: Antibacterial efficacy, log reduction by plate count; details: contact time 60 seconds, 40 mg sample in 100 ml water, pH 10, room temperature
Procedure: 40 mg of the powdered sample was dispersed in 100 ml deionised sterile water. The pH was maintained at 10 using NaOH. 8 ml of the solution was taken, to it 1 ml cell (1 mL bacterial suspension of Staphylococcus aureus (stock 10^9 cells/MI) and 1 ml of distilled water was added. The incubation was done at room temperature for 30 and 60 seconds respectively. 1 ml of the above reaction mixtures was taken and added to 9 ml of Dey-Engley Neutralizing Broth. This was further incubated for 5 minutes. This represents 10^−1 dilution. Serial dilutions were performed for plate count.

M. furfur ATCC 14521 = experiment: Disc diffusion technique (agar cup method), zone of inhibition; details: test conc. 0.5 %, Modified Dixon agar, 72 hrs at 32 C, disc diameter 10 mm
Procedure: The plates are swabbed with 100 μl of test inoculum containing approximately 10^6 cells/ml. The swabbed plates are allowed to dry for 5 mins so to absorb excess of remaining culture fluid. The discs impregnated with different test solution were placed on the inoculated agar surface. Each plate was labelled with different test solution and their respective concentration used. The agar plates are incubated for 72 hrs at 32° C. Zones of inhibition are measured using calibrated mm ruler.
Media used: Modified Dixon agar
Incubation conditions: 72 hrs at 32 C
Diameter of disc used: 10 mm (Himedia make)

## Zinc isoniacinamide [B]
M. furfur
  Log reduction: 1.98
Staphylococcus aureus
  Log reduction: 0.9
M. furfur ATCC 14521
  zone of inhibition (mm): 0 mm

## NC(=O)c1ccccn1.[Zn] [D, Zinc picolinamide]
M. furfur
  Log reduction: 1.92

## Zinc niacinamide
M. furfur
  Log reduction: 1.96
